Measurements: patent US20230257351A1, “SUBSTITUTED N-[…] HAVING P2X4 RECEPTOR ANTAGONISTIC ACTIVITY” (Bayer Aktiengesellschaft, priority 2020, published 2023)

Experiments:
human P2X4 = target: T1, human P2X4 (Homo sapiens, UniProt Q99571); assay: Human P2X4 HEK Cell FLIPR Assay; assay type: cell-based; settings: HEK293 stably expressing human P2X4, agonist Bz-ATP 3 μM (EC80); for IC50: read-out: Human P2X4 HEK Cells (FLIPR Assay) avg IC50
T1 construct: expressed in transfected cells
T1 sequence (Q99571 1-388): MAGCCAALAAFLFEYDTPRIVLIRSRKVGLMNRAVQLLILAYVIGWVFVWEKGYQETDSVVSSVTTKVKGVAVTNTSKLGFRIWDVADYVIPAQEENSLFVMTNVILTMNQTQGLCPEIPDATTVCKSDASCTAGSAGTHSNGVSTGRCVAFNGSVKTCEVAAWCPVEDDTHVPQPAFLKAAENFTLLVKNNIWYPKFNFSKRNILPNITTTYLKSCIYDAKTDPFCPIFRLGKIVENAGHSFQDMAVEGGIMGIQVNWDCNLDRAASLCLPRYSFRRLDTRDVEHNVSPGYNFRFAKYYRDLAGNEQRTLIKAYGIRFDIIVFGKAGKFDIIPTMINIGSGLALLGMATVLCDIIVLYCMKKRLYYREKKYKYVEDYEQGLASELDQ
Summary of the method: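 Compounds were preincubated 30 min at room temperature on Fluo8-AM-loaded HEK293 cells stably expressing human P2X4. The response was the calcium fluorescence rise on Bz-ATP addition.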

rat P2X4 = target: T2, rat P2X4 (Rattus norvegicus, UniProt P51577); assay: FLIPR Method for Rat P2X4 1321N1 Astrocytoma Cells; assay type: cell-based; settings: 1321N1 stably expressing rat P2X4; agonist MgATP 5 μM (EC80)
T2 construct: expressed in transfected cells
T2 sequence (P51577 1-388): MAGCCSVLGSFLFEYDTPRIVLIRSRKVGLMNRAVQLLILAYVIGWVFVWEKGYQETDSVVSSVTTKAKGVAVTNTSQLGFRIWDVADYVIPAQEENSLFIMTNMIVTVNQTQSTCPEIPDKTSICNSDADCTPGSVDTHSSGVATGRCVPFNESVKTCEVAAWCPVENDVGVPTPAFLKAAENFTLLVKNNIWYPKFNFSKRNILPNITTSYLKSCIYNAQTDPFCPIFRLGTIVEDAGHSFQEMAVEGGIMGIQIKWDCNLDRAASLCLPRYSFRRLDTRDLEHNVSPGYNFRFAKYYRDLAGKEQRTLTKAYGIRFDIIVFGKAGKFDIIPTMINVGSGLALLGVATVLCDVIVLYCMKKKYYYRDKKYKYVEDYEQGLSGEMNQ
Experimental: Compounds were tested on a 1321N1 cell line stably expressing rat P2X4. Cells were cultured on collagen-I-coated 384-well plates at a density of 10,000 cells/well and incubated overnight at 37° C., 5% CO2. P2X4 function was assessed by measuring intracellular calcium fluxes caused by Magnesium-ATP (MgATP) using the calcium-chelating dye Fluo8-AM (Molecular Devices) with the Fluorescent Imaging Plate Reader Tetra (FLIPR^Tetra; Molecular Devices CA). On the day of the assay, the medium was removed and the cells were incubated for 30 minutes at 37° C. and 5% CO2 in 30 μl of dye buffer (Hank's balanced salt solution, 10 mM HEPES, 1.8 mM CaCl2, 1 mM MgCl2, 2 mM probenecid, 5 mM D-glucose monohydrate, 5 μM Fluo8-AM, pH=7.4).
Compounds diluted in probenecid buffer (Hank's balanced salt solution, 10 mM HEPES, 1.8 mM CaCl2, 1 mM MgCl2, 2 mM probenecid, 5 mM D-glucose monohydrate, pH=7.4) at ten concentrations ranging from 25 μM to 1 nM (final concentration) were dispensed and incubated for 30 minutes at room temperature. The agonist, MgATP (Sigma-Aldrich Chemie GmbH, DE), was added at a final concentration of 5 μM, representing the EC80 routinely determined. The final assay volume was 50 μl and final DMSO concentration was 0.5%.
The fluorescence intensity reflecting intracellular calcium changes was recorded before and after MgATP addition, at an excitation and emission wavelengths of 470-495 nm and 515-575 nm respectively.
The compounds were tested in triplicates and fluorescence intensity raw data normalized to the agonist control and fitted to the four-parameter logistic equation:
Y=Bottom+(Top−Bottom)/(1+10^((Log IC50−X)*HillSlope))
Assay plate acceptance was based on the signal window (S/B)[…] and the reference compound pIC50 within ±[…] the mean of historic pIC50 of the compound. Failure to meet two of the three criteria determined exclusion of the plate's results. In Table 10 below the results for the assays are reported

Human P2X4 HEK Cells (FLIPR Assay) avg Efficacy (human P2X4) [%] | IC50 (human P2X4) [nM] | IC50 (rat P2X4) [nM] | Rat P2X4 1321N1 Astrocytoma Cells (FLIPR Assay) avg Efficacy (rat P2X4) [%] | Compound
91 | 206 | 290 | 90 | CC(=O)N(c1ccc(F)cc1)c1cc(NC(=O)Cc2ccccc2Cl)ccn1 [Example 36, N-{4-[2-(2-chlorophenyl)acetamido]pyridin-2-yl}-N-(4-fluorophenyl)acetamide]
95 | 894 | 242 | 96 | CC(=O)N(c1ccc(F)cc1)c1cc(NC(=O)Cc2ccc(F)cc2Cl)ccn1 [Example 37, N-{4-[2-(2-chloro-4-fluorophenyl)acetamido]pyridin-2-yl}-N-(4-fluorophenyl)acetamide]
96 | 232 | 136 | 98 | CC(=O)N(c1ccc(F)cc1)c1cc(NC(=O)Cc2c(Cl)cccc2Cl)ccn1 [Example 38, N-{4-[2-(2,6-dichlorophenyl)acetamido]pyridin-2-yl}-N-(4-fluorophenyl)acetamide]
100 | 335 | 152 | 98 | CC(=O)N(c1ccc(F)cc1)c1cc(NC(=O)Cc2c(Cl)cc(F)cc2Cl)ccn1 [Example 39, N-{4-[2-(2,6-dichloro-4-fluorophenyl)acetamido]pyridin-2-yl}-N-(4-fluorophenyl)acetamide]
94 | 589 | 115 | 91 | CC(=O)N(c1ccc(F)cc1)c1cc(NC(=O)Cc2c(F)cc(F)cc2Cl)ccn1 [Example 41, N-{4-[2-(2-chloro-4,6-difluorophenyl)acetamido]pyridin-2-yl}-N-(4-fluorophenyl)acetamide]
98 | 350 | 1360 | 96 | CC(=O)N(c1ccc(F)cc1)c1cc(NC(=O)Cc2ccccc2OC(F)(F)F)ccn1 [Example 42, N-(4-fluorophenyl)-N-(4-{2-[2-(trifluoromethoxy)phenyl]acetamido}pyridin-2-yl)acetamide]
98 | 355 | 358 | 99 | CC(=O)N(c1ccc(F)c(Cl)c1)c1cc(NC(=O)Cc2cccc(F)c2Cl)ccn1 [Example 52, N-(3-chloro-4-fluorophenyl)-N-{4-[2-(2-chloro-3-fluorophenyl)acetamido]pyridin-2-yl}acetamide]
100 | 455 | 143 | 100 | CC(=O)N(c1ccc(F)c(Cl)c1)c1cc(NC(=O)Cc2c(Cl)cccc2Cl)ccn1 [Example 53, N-(3-chloro-4-fluorophenyl)-N-{4-[2-(2,6-dichlorophenyl)acetamido]pyridin-2-yl}acetamide]
97 | 269 | 447 | 97 | CC(=O)N(c1cccc(F)c1)c1cc(NC(=O)Cc2ccccc2Cl)ccn1 [Example 54, N-{4-[2-(2-chlorophenyl)acetamido]pyridin-2-yl}-N-(3-fluorophenyl)acetamide]
102 | 611 | 289 | 99 | CC(=O)N(c1cccc(F)c1)c1cc(NC(=O)Cc2ccc(F)cc2Cl)ccn1 [Example 55, N-{4-[2-(2-chloro-4-fluorophenyl)acetamido]pyridin-2-yl}-N-(3-fluorophenyl)acetamide]
95 | 351 | 350 | 86 | CC(=O)N(c1ccc(Cl)c(F)c1)c1cc(NC(=O)Cc2ccccc2Cl)ccn1 [Example 58, N-(4-chloro-3-fluorophenyl)-N-{4-[2-(2-chlorophenyl)acetamido]pyridin-2-yl}acetamide]

The remaining lines, values behind:

Compound | Human P2X4 HEK Cells (FLIPR Assay) avg Efficacy (human P2X4) [%] | IC50 (human P2X4) [nM] | IC50 (rat P2X4) [nM] | Rat P2X4 1321N1 Astrocytoma Cells (FLIPR Assay) avg Efficacy (rat P2X4) [%]
CC(=O)N(c1ccc(F)cc1)c1cc(NC(=O)Cc2c(C)cccc2C)ccn1 [Example 34, N-{4-[2-(2,6-dimethylphenyl)acetamido]pyridin-2-yl}-N-(4-fluorophenyl)acetamide] | 97 | 199 | 170 | 94
CC(=O)N(c1ccc(F)cc1)c1cc(NC(=O)Cc2c(F)cccc2Cl)ccn1 [Example 40, N-{4-[2-(2-chloro-6-fluorophenyl)acetamido]pyridin-2-yl}-N-(4-fluorophenyl)acetamide] | 90 | 308 | 194 | 75
CC(=O)N(c1ccc(C)cc1)c1cc(NC(=O)Cc2cccc(F)c2Cl)ccn1 [Example 45, N-{4-[2-(2-chloro-3-fluorophenyl)acetamido]pyridin-2-yl}-N-(4-methylphenyl)acetamide] | 102 | 485 | 1180 | 100
CC(=O)N(c1ccc(F)c(Cl)c1)c1cc(NC(=O)Cc2ccccc2Cl)ccn1 [Example 50, N-(3-chloro-4-fluorophenyl)-N-{4-[2-(2-chlorophenyl)acetamido]pyridin-2-yl}acetamide] | 95 | 351 | 213 | 96
CC(=O)N(c1ccc(F)c(Cl)c1)c1cc(NC(=O)Cc2ccc(F)cc2Cl)ccn1 [Example 51, N-(3-chloro-4-fluorophenyl)-N-{4-[2-(2-chloro-4-fluorophenyl)acetamido]pyridin-2-yl}acetamide] | 98 | 493 | 177 | 96
CC(=O)N(c1cccc(F)c1)c1cc(NC(=O)Cc2c(Cl)cccc2Cl)ccn1 [Example 56, N-{4-[2-(2,6-dichlorophenyl)acetamido]pyridin-2-yl}-N-(3-fluorophenyl)acetamide] | 97 | 260 | 190 | 98
CC(=O)N(c1cccc(F)c1)c1cc(NC(=O)Cc2c(Cl)cc(F)cc2Cl)ccn1 [Example 57, N-{4-[2-(2,6-dichloro-4-fluorophenyl)acetamido]pyridin-2-yl}-N-(3-fluorophenyl)acetamide] | 99 | 377 | 122 | 97
CC(=O)N(c1ccc(Cl)c(F)c1)c1cc(NC(=O)Cc2ccc(F)cc2Cl)ccn1 [Example 59, N-(4-chloro-3-fluorophenyl)-N-{4-[2-(2-chloro-4-fluorophenyl)acetamido]pyridin-2-yl}acetamide] | 97 | 532 | 240 | 81
